Where two headings read alike, the source gives them in different places.
Key:
[1] = target: T1, recombinant human aromatase (CYP19) (Homo sapiens, UniProt P11511); experiment: Inhibition of recombinant human aromatase; format: biochemical; details: ratio of IC50 values vs 13 (24880 nM)
T1 sequence (P11511 1-503): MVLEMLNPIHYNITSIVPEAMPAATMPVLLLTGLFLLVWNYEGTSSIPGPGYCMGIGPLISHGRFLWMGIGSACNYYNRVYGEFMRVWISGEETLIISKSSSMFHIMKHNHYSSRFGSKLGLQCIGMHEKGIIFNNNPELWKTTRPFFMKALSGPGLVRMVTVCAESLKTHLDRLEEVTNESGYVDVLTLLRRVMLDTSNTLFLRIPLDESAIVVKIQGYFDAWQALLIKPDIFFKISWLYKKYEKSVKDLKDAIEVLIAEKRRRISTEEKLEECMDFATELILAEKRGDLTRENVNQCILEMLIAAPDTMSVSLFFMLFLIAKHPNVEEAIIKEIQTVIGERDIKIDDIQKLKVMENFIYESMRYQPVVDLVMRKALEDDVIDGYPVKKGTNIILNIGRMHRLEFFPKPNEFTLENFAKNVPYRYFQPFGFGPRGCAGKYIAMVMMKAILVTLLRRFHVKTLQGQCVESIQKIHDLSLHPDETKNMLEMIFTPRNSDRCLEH

recombinant human ER-α [2] = target: T2, recombinant human ER-α (Homo sapiens, UniProt P03372); details: at 100 μM; previously reported compounds included for comparison; cited from earlier work
T2 sequence (P03372 1-595): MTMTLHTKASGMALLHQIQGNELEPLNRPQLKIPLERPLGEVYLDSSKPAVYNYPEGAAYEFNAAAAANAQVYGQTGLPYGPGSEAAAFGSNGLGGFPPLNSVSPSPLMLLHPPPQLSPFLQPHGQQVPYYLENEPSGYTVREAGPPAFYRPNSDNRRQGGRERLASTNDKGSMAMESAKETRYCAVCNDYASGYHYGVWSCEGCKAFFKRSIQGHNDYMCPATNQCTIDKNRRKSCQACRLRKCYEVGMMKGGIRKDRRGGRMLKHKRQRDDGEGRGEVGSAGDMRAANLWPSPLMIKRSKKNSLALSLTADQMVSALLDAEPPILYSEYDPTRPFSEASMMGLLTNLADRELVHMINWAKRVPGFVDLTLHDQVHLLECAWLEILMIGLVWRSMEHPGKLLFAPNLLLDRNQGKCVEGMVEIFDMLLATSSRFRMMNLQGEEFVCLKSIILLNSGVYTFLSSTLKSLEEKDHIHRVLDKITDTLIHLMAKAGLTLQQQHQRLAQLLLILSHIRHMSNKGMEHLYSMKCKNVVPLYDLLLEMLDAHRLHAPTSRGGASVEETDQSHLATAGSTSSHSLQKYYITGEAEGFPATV

recombinant human ER-α [3] = target: T2, recombinant human ER-α; experiment: Binding affinity for recombinant human ER-α; details: at 100 μM (100000 nM)
recombinant human ER-β [4] = target: T3, recombinant human ER-β (Homo sapiens, UniProt Q92731); experiment: Binding affinity for recombinant human ER-β; details: at 100 μM (100000 nM)
T3 sequence (Q92731 whole entry): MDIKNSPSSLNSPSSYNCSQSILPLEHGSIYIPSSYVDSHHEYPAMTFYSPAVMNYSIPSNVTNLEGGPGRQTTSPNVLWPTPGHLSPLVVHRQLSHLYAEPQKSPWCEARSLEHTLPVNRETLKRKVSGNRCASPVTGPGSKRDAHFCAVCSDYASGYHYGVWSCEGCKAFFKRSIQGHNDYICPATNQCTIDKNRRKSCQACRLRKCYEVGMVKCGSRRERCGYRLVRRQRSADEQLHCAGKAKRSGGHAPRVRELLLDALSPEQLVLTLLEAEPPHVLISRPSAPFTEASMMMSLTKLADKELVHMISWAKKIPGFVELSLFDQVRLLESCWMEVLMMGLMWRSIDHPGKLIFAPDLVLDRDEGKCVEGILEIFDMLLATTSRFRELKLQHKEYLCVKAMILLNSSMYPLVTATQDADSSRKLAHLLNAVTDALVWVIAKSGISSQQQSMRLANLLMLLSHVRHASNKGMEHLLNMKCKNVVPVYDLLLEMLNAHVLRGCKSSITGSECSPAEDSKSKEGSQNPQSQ

[5] = tested on: progesterone receptor (PGR) mRNA expression in MCF-7 cells; experiment: Antagonism of β-estradiol-stimulated progesterone receptor; format: cell-based, human; details: 1 μM compound in the presence of 10 nM β-estradiol, 24 hours
recombinant human ER-β [6] = target: T3, recombinant human ER-β; details: at 100 μM; previously reported compounds included for comparison; cited from earlier work

In the case of CC(=C(c1ccc(N)cc1)c1ccc(N)cc1)c1ccc([N+](=O)[O-])cc1 [Compound 12c, 4-(1-(4-Aminophenyl)-2-(4-nitrophenyl)prop-1-enyl)benzenamine], the “times more potent than 13 against aromatase” value [1] is reported as 113 times.
For CCC(=C(c1ccc(N)cc1)c1ccc(N)cc1)c1ccc([N+](=O)[O-])cc1 [Compound 12d, 4-(1-(4-Aminophenyl)-2-(4-nitrophenyl)but-1-enyl)benzenamine], the “times more potent than 13 against aromatase” value [1] was 400 times.
In the case of CCC(=C(c1ccc(O)cc1)c1ccc(O)cc1)c1ccccc1 [Compound 13, 4-(1-(4-Hydroxyphenyl)-2-phenylbut-1-enyl)phenol], the ER-α percent competition (recombinant human ER-α [2]) is given as 80% competition at 100 μM.
With CC(=C(c1ccc(O)cc1)c1ccc(OCC(N)=O)cc1)c1ccc([N+](=O)[O-])cc1 [Compound 16a, (E,Z)-2-(4-(1-(4-Hydroxyphenyl)-2-(4-nitrophenyl)prop-1-enyl)phenoxy)-acetamide] the ER-α percent competition (recombinant human ER-α [3]) was 0% competition at 100 μM and the ER-β percent competition (recombinant human ER-β [4]) was 0% competition at 100 μM.
CCC(=C(c1ccc(O)cc1)c1ccc(OCC(N)=O)cc1)c1ccc([N+](=O)[O-])cc1 [Compound 16b, (E,Z)-2-(4-(1-(4-Hydroxyphenyl)-2-(4-nitrophenyl)but-1-enyl)phenoxy)-acetamide] showed an ER-α percent competition (recombinant human ER-α [3]) of 0% competition at 100 μM and an ER-β percent competition (recombinant human ER-β [4]) of 0% competition at 100 μM.
In the case of CCC(=C(c1ccc(N)cc1)c1ccc(NCC(N)=O)cc1)c1ccc([N+](=O)[O-])cc1 [Compound 16d, (E,Z)-2-(4-(1-(4-Aminophenyl)-2-(4-nitrophenyl)but-1-enyl)phenylamino)acetamide], the “PGR mRNA expression level relative to estradiol (100%)” value [5] is reported as 19.6%.
For CC/C(=C(/c1ccc(O)cc1)c1ccc(OCC(N)=O)cc1)c1ccccc1 [Compound 17, (E,Z)-2-(4-(1-(4-Hydroxyphenyl)-2-phenylbut-1-enyl)phenoxy)-acetamide], the ER-α percent competition (recombinant human ER-α [2]) is listed as 57% competition at 100 μM and the ER-β percent competition (recombinant human ER-β [6]) is listed as 71% competition at 100 μM.

— publication PMC5065788 (Bioorganic & medicinal chemistry, 2016)
